According to article PMC11452689 (Communications Biology, 2024):

Assay: LUV membrane polarisation, oxonol VI, Na+/K+ gradient
Type: biochemical
Settings: 100 mM NaCl inside, 100 mM KCl outside, pH 7.2, 0.5 MIC

## valinomycin
  diffusion potential in the cation gradient LUV model, in words: inside positive polarisation
